From patent US10016417B2, “Extended release formulation of a direct thrombin inhibitor” (Diakron Pharmaceuticals Inc., priority 2011, dated 2018) come the findings set out here.

Each structure is given as a SMILES string.

The target in series [1] is T1, thrombin (Homo sapiens, UniProt P00734). Put plainly: Single dose crossover study: prothrombin time PT (INR). In kind it is in vivo. On the set-up: from tissue; host or cells: blood plasma of dosed subjects. The method, then: As used herein, the term “prothrombin time (PT)” is the rate at which prothrombin is converted to thrombin in citrated blood with added calcium. This is used to assess the extrinsic coagulation system of the blood
(§1) Four formulations having same composition as those described in Example 1 were dosed in a clinical study. […] (reported as the international normalized ratio [INR]); (i.e. PD parameters) and (3) assess the safety of DPOC-4088 in healthy volunteers.
(§2) Twelve subjects aged 21 to 45 (mean 32.9±8.55) years were enrolled, and were dosed in 4 periods after an overnight fast and had blood drawn for PK/PD determinations immediately prior to dosing and at specified time intervals for 48 hrs post-dosing. Each dosing period was separated by a ≥5-day washout. The observed PK and PD parameters are tabulated as Table 12.

For series [2], the target named is T1, thrombin. As to the kind of experiment: Multiple once-daily dosing study: ECT. In kind it is in vivo. Further details: a prothrombin-thrombin intermediate which retains the full molecular weight of prothrombin; from tissue; host or cells: blood plasma of dosed subjects. The note with it: at maximum levels, from regression analyses.
Description: ECT is prolonged in a specific and linear fashion with increasing concentrations of hirudin.
Series [3] in a line: Multiple once-daily oral dosing study, Dose Step 1 100 mg q.d.: PK. In kind it is in vivo, human. The note with it: assuming dose linearity from Day 10 PK data. How it is done:
(§3) Randomized, double-blind, placebo-controlled, stepwise study of the pharmacokinetics (PK), pharmacodynamics (PD), PK/PD characteristics and safety of multiple once-daily oral dosing of DPOC-4088 in healthy young male subjects
Preliminary Safety, PK, and PD Results Dose Step 1: 100 mg q.d.
Mean PK profiles of DPOC-4088 on Day 1 (first dose) and Day 10 (steady-state) are shown in FIGS. 14 a-b, respectively. • On Day 1, the mean PK profile was in line with observation from the previous single dose study (DPOC-001). • The degree of accumulation to steady-state levels was modest with a Day 10/Day 1 ratio for AUC24h of 1.4. […] Pharmacodynamics

Series [4] deals with thrombin. As to the kind of experiment: Single dose crossover study: thrombin time (TT). Format: in vivo, human. The note with it: by 48 hrs; returned to within. The method, then: As used herein, the term “thrombin time (TT)” is the time required for plasma fibrinogen to form […], measured as the time for clot formation after exogenous thrombin is added to citrated plasma.
as §1, §2

Series [5] concerns the target T1, thrombin. As to the kind of experiment: Multiple once-daily dosing study: aPTT. Format: in vivo. Further details: from tissue; host or cells: blood plasma of dosed subjects. The note with it: at maximum levels, from regression analyses.
Description: (§4) As used herein, the term “activated partial thromboplastin time (aPTT)” is the period required for clot formation in recalcified blood plasma after contact activation and the addition of platelet substitutes. This measure is used to address the intrinsic and common pathways of coagulation.
as §3
Mean maximum and minimum fold changes compared to baseline (Day 1, pre dose) in ECT, aPTT and PT on Day 10 are shown in Table 15. […] Minimum changes in ECT and aPTT on Day 10 were 1.12 and 1.10 respectively (Table 16). These values are lower than the target values defined in the protocol which were 2 and 1.5, respectively, at steady-state trough levels (see below). • Linear regression on the changes in ECT and aPTT versus DPOC-4088 plasma levels was performed. […] For ECT the changes would be 2.4 and 3.1 fold respectively. • For reference, for dabigatran, clinically relevant doses result in changes in aPTT of approximately 1.50 fold at trough levels and 2-fold at maximum levels. For ECT these changes are approximately 2-fold at trough levels and 3-fold at maximum levels.

The target in series [6] is T1, thrombin. Put plainly: Single dose crossover study: activated partial thromboplastin time (aPTT). Further details: from tissue; host or cells: blood plasma of dosed subjects. In kind it is in vivo. As to conditions: 24 hrs post-dose. How it is done:
as §4, §1, §2

Series [7] deals with T1, thrombin. As to the kind of experiment: Single dose crossover study: ecarin clotting time (ECT). In kind it is in vivo. On the set-up: a prothrombin-thrombin intermediate which retains the full molecular weight of prothrombin; from tissue; host or cells: blood plasma of dosed subjects.
Description: In the assay, a known quantity of ecarin is added to the plasma of a patient treated with hirudin.
Series [8] is described as follows: Multiple once-daily dosing study: safety. Format: in vivo, human.
Description: as §3
10 healthy volunteers participated in the first step of the multiple dose study (8 received DPOC-4088 and 2 received placebo). […] Minor AEs were reported. All AEs were grade 1, transient and were resolved. No bruising (except for puncture site hematomas) or petechiae were reported and the physical (including neurological) exams were normal in all volunteers. The lab exams were within normal limits or deviating without clinical significance.

Series [9] is described as follows: Single dose crossover study: safety. Format: in vivo, human. How it is done:
as §1
Twelve subjects aged 21 to 45 (mean 32.9±8.55) years were enrolled, and were dosed in 4 periods after an overnight fast and had blood drawn for PK/PD determinations immediately prior to dosing and at specified time intervals for 48 hrs post-dosing. Each dosing period was separated by a ≥5-day washout.

For the compound `O=C(Cn1c(Cl)cnc(NCC(F)(F)c2ccccn2)c1=O)NCc1ncccc1F` [DPOC-4088, 3-fluoro-2-pyridylmethyl-3-(2,2-difluoro-2-(2-pyridyl)ethylamino)-6-chloropyrazin-2-one-1-acetamide], the “mean peak INR” value on thrombin [1] (single dose 100 mg formulations) is reported as 1.15-1.17; on thrombin [1] (single dose 200 mg formulations) it was 1.28-1.30. Further, the “time at which mean peak INRs were reached” value on thrombin [1] (single doses of 100 or 200 mg) turned out to be 4 h. Further, the “ECT expected fold change from baseline” value is 2.4 fold on thrombin [2] (Day 10, 200 mg once daily) and 3.1 fold on thrombin [2] (Day 10, 300 mg once daily). For the same compound, the entries for the “expected maximum DPOC-4088 levels” value in series [3] (daily dose 200 mg) and in series [3] (daily dose 300 mg) were around 2000 nM and around 3000 nM, respectively. Besides, in the series on thrombin [4], the “mean TT relative to pre-dosing TT” value is given as 1-15%. Moreover, the “aPTT expected fold change from baseline” value at thrombin [5] (Day 10, 200 mg once daily) amounted to 1.8 fold; on thrombin [5] (Day 10, 300 mg once daily), 2.2 fold. The “mean aPTT above the pre-dose aPTT” value at thrombin [6] (100 mg) is 12-15%; on thrombin [6] (200 mg) it was 21-24%. Besides, the “mean 24 hr ECT above the pre-dose ECT” value is given as 21-23% on thrombin [7] (100 mg dose) and 35-36% on thrombin [7] (200 mg dose). For the same compound, in [8] (100 mg level, after 10 days of oral administration), the safety conclusion entry is recorded as “very safe”. Also, in [8] (100 mg q.d., 8 on DPOC-4088), the “treatment emergent serious adverse events (AEs)” value is recorded as “No treatment emergent serious adverse events”. The safety and tolerability result in series [9] (100 and 200 mg doses, both release formulations) was “safe and well-tolerated”. Further, the “Adverse events (AEs), subjects” value in series [9] (most grade 1, unrelated or unlikely related) was 9/12.
